Test results reported in patent US20230372309A1, “ALPHA-2 ADRENERGIC RECEPTOR ANTAGONIST” (Kyoto University, priority 2020, published 2023).

What was measured:
a2C adrenergic receptor = target: T1, a2C adrenergic receptor (Homo sapiens, UniProt P18825); assay: TGFα shedding assay in transfected HEK293 cells, noradrenaline stimulation; format: cell-based; settings: 5 nM Noradrenaline stimulation, read-out: IC50, shedding assay, α2C
T1 construct: expressed in transfected cells; host or cells: HEK293
T1 sequence (P18825 1-462): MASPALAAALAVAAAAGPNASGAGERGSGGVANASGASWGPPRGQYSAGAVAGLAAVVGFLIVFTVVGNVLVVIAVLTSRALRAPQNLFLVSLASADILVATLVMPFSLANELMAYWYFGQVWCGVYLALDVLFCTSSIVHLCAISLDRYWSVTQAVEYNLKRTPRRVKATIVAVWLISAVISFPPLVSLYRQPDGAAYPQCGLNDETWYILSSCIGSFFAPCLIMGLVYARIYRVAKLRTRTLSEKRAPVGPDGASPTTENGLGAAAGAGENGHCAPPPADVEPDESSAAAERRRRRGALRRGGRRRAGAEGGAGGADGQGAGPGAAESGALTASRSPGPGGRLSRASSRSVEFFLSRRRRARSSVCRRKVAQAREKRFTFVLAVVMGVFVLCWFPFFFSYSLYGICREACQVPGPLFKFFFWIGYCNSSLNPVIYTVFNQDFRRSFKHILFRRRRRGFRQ
Description: (§1) The TGFα shedding assay is known as an assay by which a signal transduction pathway of a GPCR can be detected and measured (Patent Document 3). When the signal transduction pathway of a GPCR is activated, fusion proteins of membrane-bound alkaline phosphatase (AP) and TGFα are cleaved by TACE (TNFα converting enzyme), which is a membrane protease, and AP-TGFα is released from the cells. This released AP is measured.
(§2) The TGFα shedding assay was performed according to the method disclosed in WO2015/128894A1.
(§3) Specifically, human embryonic kidney HEK293 cells were transfected with a plasmid vector containing the cDNA of alkaline phosphatase (AP) fused TGFα, a plasmid vector containing the cDNA of a fusion protein (Gaq/i) of an N-terminal peptide fragment of Ga protein Gaq and a C-terminal peptide fragment of Ga protein Gai, and a plasmid vector containing the cDNA of a target GPCR, 24 hours later a compound was added and cultured for 30 minutes, a GPCR agonist (5 nM noradrenaline) was added, one hour later half of the culture supernatant was transferred to a new plate to prepare a supernatant plate, and the remaining plate was used as a cell plate. Ap-nitrophenyl phosphate solution was added to each plate and allowed to stand, and when 0 hours and 2 hours had passed, the absorbance at 405 nm was measured using a plate reader.
(§4) The measured value was converted to AP activity (%) according to the method described in WO2015/128894A1, and the obtained value was used as % Shedding.

a2B adrenergic receptor [1] = target: T2, a2B adrenergic receptor (Homo sapiens, UniProt P18089); assay: as above; format: cell-based; settings: for IC50: 5 nM Noradrenaline stimulation, HEK293 cells, read-out: IC50, shedding assay, α2B
T2 construct: expressed in transfected cells; host or cells: HEK293
T2 sequence (P18089 1-450): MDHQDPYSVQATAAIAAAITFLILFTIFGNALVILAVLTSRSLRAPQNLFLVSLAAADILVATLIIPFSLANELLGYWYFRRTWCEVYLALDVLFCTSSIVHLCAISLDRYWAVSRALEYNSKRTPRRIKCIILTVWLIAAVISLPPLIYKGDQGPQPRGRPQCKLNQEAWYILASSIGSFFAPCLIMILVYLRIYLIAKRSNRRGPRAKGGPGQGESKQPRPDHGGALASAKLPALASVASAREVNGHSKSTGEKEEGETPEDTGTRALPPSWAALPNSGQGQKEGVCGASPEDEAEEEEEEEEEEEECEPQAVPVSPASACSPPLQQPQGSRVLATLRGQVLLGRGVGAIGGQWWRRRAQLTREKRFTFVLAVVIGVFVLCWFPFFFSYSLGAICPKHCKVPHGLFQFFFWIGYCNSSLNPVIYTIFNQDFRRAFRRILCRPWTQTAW
Description: as §1, §2, §3, §4

a2A adrenergic receptor [2] = target: T3, a2A adrenergic receptor (Homo sapiens, UniProt P08913); assay: as above; format: cell-based; settings: 5 nM Noradrenaline stimulation, read-out: IC50, shedding assay, α2A
T3 construct: expressed in transfected cells; host or cells: HEK293
T3 sequence (P08913 1-465): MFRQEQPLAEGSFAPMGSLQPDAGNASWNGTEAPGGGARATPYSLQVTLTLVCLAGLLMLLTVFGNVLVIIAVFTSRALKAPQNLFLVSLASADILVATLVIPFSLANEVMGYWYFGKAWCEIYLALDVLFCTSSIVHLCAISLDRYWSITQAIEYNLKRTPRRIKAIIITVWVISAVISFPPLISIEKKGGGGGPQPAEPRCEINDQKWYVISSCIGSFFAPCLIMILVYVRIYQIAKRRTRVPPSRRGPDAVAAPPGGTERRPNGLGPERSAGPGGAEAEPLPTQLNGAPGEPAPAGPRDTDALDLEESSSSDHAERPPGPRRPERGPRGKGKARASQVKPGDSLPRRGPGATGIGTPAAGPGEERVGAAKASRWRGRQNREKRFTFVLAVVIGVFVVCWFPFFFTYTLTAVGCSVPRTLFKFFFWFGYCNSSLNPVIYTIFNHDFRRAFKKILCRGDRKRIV
Description: as §1, §2, §3, §4

a2B adrenergic receptor [3] = target: T2, a2B adrenergic receptor; assay: Binding affinity to a2 adrenergic receptors, tritium-labeled rauwolscine tracer; settings: tritium-labeled rauwolscine as tracer
Description: (§5) [Binding Affinity to a2 Adrenergic Receptors]
(§6) The compound 1 was assayed for its inhibitory activity against a2A adrenergic receptor and a2B adrenergic receptor using rauwolscine with a methyl group labeled with tritium as a tracer, and binding affmity was examined. RauwoLscine is an antagonist that specifically binds to a2 adrenergic receptors.

a2A adrenergic receptor [4] = target: T3, a2A adrenergic receptor; assay: as above; settings: tritium-labeled rauwolscine as tracer
Description: as §5, §6

a1B adrenergic receptor = target: T4, a1B adrenergic receptor (Homo sapiens, UniProt P35368); assay: Binding affinity to a1 adrenergic receptors, tritium-labeled prazosin tracer; settings: tritium-labeled prazosin as tracer
T4 sequence (P35368 1-520): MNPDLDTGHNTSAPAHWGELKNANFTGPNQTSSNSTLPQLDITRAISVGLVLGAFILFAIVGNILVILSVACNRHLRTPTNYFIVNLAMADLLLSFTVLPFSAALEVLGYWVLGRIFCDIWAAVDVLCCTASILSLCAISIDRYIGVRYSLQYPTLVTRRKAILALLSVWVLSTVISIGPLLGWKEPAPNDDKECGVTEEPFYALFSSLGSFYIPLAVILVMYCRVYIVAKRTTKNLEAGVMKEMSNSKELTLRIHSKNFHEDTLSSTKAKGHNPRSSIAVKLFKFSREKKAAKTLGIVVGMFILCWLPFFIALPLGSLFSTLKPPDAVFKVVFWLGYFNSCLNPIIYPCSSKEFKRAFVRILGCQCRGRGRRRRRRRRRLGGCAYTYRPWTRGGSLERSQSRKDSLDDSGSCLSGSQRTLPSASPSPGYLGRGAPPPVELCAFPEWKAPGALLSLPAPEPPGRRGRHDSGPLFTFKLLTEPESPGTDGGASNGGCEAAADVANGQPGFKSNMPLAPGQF
Description: (§7) [Binding Affinity to a1 Adrenergic Receptors]
(§8) The compound 1 was assayed for its inhibitory activity against a1A adrenergic receptor and a1B adrenergic receptor using prazosin with a 7-methoxy group labeled with tritium as a tracer, and binding affinity was examined. Prazosin is an antagonist that specifically binds to a1 adrenergic receptors.

a1A adrenergic receptor = target: T5, a1A adrenergic receptor (Homo sapiens, UniProt P35348); assay: as above; settings: tritium-labeled prazosin as tracer
T5 sequence (P35348 1-466): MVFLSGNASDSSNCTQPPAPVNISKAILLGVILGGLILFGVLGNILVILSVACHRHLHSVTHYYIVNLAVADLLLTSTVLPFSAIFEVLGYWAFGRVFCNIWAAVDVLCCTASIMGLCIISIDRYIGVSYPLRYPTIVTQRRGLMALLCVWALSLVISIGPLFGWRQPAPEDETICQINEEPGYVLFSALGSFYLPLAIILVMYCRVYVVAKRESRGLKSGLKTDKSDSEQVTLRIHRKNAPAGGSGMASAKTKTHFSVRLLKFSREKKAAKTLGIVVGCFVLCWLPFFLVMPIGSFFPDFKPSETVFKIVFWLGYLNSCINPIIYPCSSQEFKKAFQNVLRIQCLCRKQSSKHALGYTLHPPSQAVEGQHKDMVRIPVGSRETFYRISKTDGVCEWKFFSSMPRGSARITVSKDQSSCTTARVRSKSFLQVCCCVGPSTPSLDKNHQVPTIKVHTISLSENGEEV
Description: as §7, §8

In the case of `CCN1/C(=C/C(C)=O)Sc2ccc(OC)cc21` [Compound 2], the IC50 (a2C adrenergic receptor) is reported as > 30 µM, the IC50 (a2B adrenergic receptor [1]) is reported as > 30 µM and the IC50 (a2A adrenergic receptor [2]) is reported as > 30 µM.
For `CCN1/C(=C/C(C)=O)Sc2cc(OC)ccc21` [Compound 3, (1Z)-1-(3-ethyl-6-methoxy-2(3H)-benzothiazoylidene)-2-propanone], the IC50 (a2C adrenergic receptor) was > 30 µM, the IC50 (a2B adrenergic receptor [1]) was > 30 µM and the IC50 (a2A adrenergic receptor [2]) was > 30 µM.
`CCN1/C(=C/C(C)=O)Sc2ccc(F)cc21` [Compound 1, (1Z)-1-(3-ethyl-5-fluoro-2(3H)-benzothiazolylidene)-2-propanone] was tested, and the IC50 (a2C adrenergic receptor) was > 30 µM, the IC50 (a2B adrenergic receptor [1]) was 1.2 µM and the “binding affinity (inhibitory activity) to a2B adrenergic receptor compared with a2A and a2C adrenergic receptor” value (a2B adrenergic receptor [1]; shedding assay, Table 1, a2B versus a2A and a2C) was “higher”. For the same molecule, the IC50 (a2A adrenergic receptor [2]) was > 30 µM, the “binding affinity to a2B adrenergic receptor” value (a2B adrenergic receptor [3]) was “exhibited selective binding affinity” and the “binding affinity to a2B adrenergic receptor compared with a2A adrenergic receptor” value (a2B adrenergic receptor [3]; a2B versus a2A) was “higher”. The “binding affinity to a2A adrenergic receptor” value (a2A adrenergic receptor [4]) was “exhibited selective binding affinity”, the “binding affinity to the a1B adrenergic receptor” value (a1B adrenergic receptor) was “did not exhibit binding affinity” and the “binding affinity to the a1A adrenergic receptor” value (a1A adrenergic receptor) was “did not exhibit binding affinity”.
